Assay results published in PubChem BioAssay (NCI).
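Test compounds were applied to cells in 96-well plates for 48 hours at 5 doses. At the TGI there is no net growth.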

Columns and labels:
Experiment in all cases: NCI tumour cell line growth inhibition, 48 h
[1] = test system: 786-0 renal
[2] = test system: A498 renal
[3] = test system: A549 NSCLC
[4] = test system: ACHN renal
[5] = test system: CAKI-1 renal
[6] = test system: CCRF-CEM leukemia
[7] = test system: COLO 205 colon
[8] = test system: DLD-1 colon
[9] = test system: DMS 114 small cell lung
[10] = test system: DMS 273 small cell lung
[11] = test system: EKVX NSCLC
[12] = test system: HCC-2998 colon
[13] = test system: HCT-116 colon
[14] = test system: HCT-15 colon
[15] = test system: HL-60(TB) leukemia
[16] = test system: HOP-18 NSCLC
[17] = test system: HOP-62 NSCLC
[18] = test system: HOP-92 NSCLC
[19] = test system: HT29 colon
[20] = test system: IGROV1 ovarian
[21] = test system: K-562 leukemia
[22] = test system: KM12 colon
[23] = test system: KM20L2 colon
[24] = test system: LXFL 529 NSCLC
[25] = test system: M14 melanoma
[26] = test system: M19-MEL melanoma
[27] = test system: MALME-3M melanoma
[28] = test system: MOLT-4 leukemia
[29] = test system: NCI-H226 lung
[30] = test system: NCI-H23 lung
[31] = test system: NCI-H460 lung
[32] = test system: NCI-H522 lung
[33] = test system: OVCAR-3 ovarian
[34] = test system: OVCAR-4 ovarian
[35] = test system: OVCAR-5 ovarian
[36] = test system: OVCAR-8 ovarian
[37] = test system: RPMI-8226 leukemia
[38] = test system: SF-268 CNS
[39] = test system: SF-295 CNS
[40] = test system: SF-539 CNS
[41] = test system: SK-MEL-28 melanoma
[42] = test system: SK-MEL-5 melanoma
[43] = test system: SK-OV-3 ovarian
[44] = test system: SN12C renal
[45] = test system: SNB-19 CNS
[46] = test system: SNB-75 CNS
[47] = test system: SNB-78 CNS
[48] = test system: SW-620 colon
[49] = test system: TK-10 renal
[50] = test system: U251 CNS
[51] = test system: UACC-257 melanoma
[52] = test system: UACC-62 melanoma
[53] = test system: UO-31 renal
[54] = test system: LOX IMVI melanoma
[55] = test system: RXF 393 renal
[56] = test system: SK-MEL-2 melanoma
[57] = test system: SR leukemia
[58] = test system: XF 498 CNS

**Q.** With CCOC(=O)/C(C#N)=C(O)/C(=C/c1ccccc1Cl)NC(=O)c1ccccc1 as the compound, how does the TGI [1] read?
**A.** > 100 µM

**Q.** What about the TGI [2] of the same compound?
**A.** > 100 µM

**Q.** And the TGI [3]?
**A.** > 100 µM

**Q.** And the TGI [4]?
**A.** > 100 µM

**Q.** And the TGI [5]?
**A.** > 100 µM

**Q.** And the TGI [6]?
**A.** > 100 µM

**Q.** And the TGI [7]?
**A.** > 100 µM

**Q.** And the TGI [8]?
**A.** > 100 µM

**Q.** What about the TGI [9] of the same compound?
**A.** > 100 µM

**Q.** And the TGI [10]?
**A.** > 100 µM

**Q.** What about the TGI [11] of the same compound?
**A.** > 100 µM

**Q.** And the TGI [12]?
**A.** > 100 µM

**Q.** And the TGI [13]?
**A.** > 100 µM

**Q.** And the TGI [14]?
**A.** > 100 µM

**Q.** What about the TGI [15] of the same compound?
**A.** > 100 µM

**Q.** And the TGI [16]?
**A.** > 100 µM

**Q.** What about the TGI [17] of the same compound?
**A.** > 100 µM

**Q.** What about the TGI [18] of the same compound?
**A.** > 100 µM

**Q.** And the TGI [19]?
**A.** > 100 µM

**Q.** And the TGI [20]?
**A.** > 100 µM

**Q.** What about the TGI [21] of the same compound?
**A.** > 100 µM

**Q.** What about the TGI [22] of the same compound?
**A.** > 100 µM

**Q.** And the TGI [23]?
**A.** > 100 µM

**Q.** And the TGI [24]?
**A.** > 100 µM

**Q.** What about the TGI [25] of the same compound?
**A.** > 100 µM

**Q.** And the TGI [26]?
**A.** > 100 µM

**Q.** And the TGI [27]?
**A.** > 100 µM

**Q.** What about the TGI [28] of the same compound?
**A.** > 100 µM

**Q.** What about the TGI [29] of the same compound?
**A.** > 100 µM

**Q.** What about the TGI [30] of the same compound?
**A.** > 100 µM

**Q.** And the TGI [31]?
**A.** > 100 µM

**Q.** What about the TGI [32] of the same compound?
**A.** > 100 µM

**Q.** And the TGI [33]?
**A.** > 100 µM

**Q.** What about the TGI [34] of the same compound?
**A.** > 100 µM

**Q.** What about the TGI [35] of the same compound?
**A.** > 100 µM

**Q.** And the TGI [36]?
**A.** > 100 µM

**Q.** What about the TGI [37] of the same compound?
**A.** 55.1 µM

**Q.** And the TGI [38]?
**A.** > 100 µM

**Q.** And the TGI [39]?
**A.** > 100 µM

**Q.** What about the TGI [40] of the same compound?
**A.** > 100 µM

**Q.** And the TGI [41]?
**A.** > 100 µM

**Q.** And the TGI [42]?
**A.** > 100 µM

**Q.** What about the TGI [43] of the same compound?
**A.** > 100 µM

**Q.** And the TGI [44]?
**A.** > 100 µM

**Q.** What about the TGI [45] of the same compound?
**A.** > 100 µM

**Q.** And the TGI [46]?
**A.** > 100 µM

**Q.** What about the TGI [47] of the same compound?
**A.** > 100 µM

**Q.** What about the TGI [48] of the same compound?
**A.** 52.2 µM

**Q.** What about the TGI [49] of the same compound?
**A.** > 100 µM

**Q.** And the TGI [50]?
**A.** > 100 µM

**Q.** What about the TGI [51] of the same compound?
**A.** > 100 µM

**Q.** And the TGI [52]?
**A.** > 100 µM

**Q.** And the TGI [53]?
**A.** > 100 µM

**Q.** C/C(=N\NC(=S)N(C)C)c1ncc[nH]1 was tested. Which TGI [1] did it give?
**A.** 5.67 µM

**Q.** And the TGI [2]?
**A.** 16.7 µM

**Q.** And the TGI [3]?
**A.** > 100 µM

**Q.** And the TGI [4]?
**A.** 31.4 µM

**Q.** And the TGI [6]?
**A.** 54.9 µM

**Q.** What about the TGI [8] of the same compound?
**A.** > 100 µM

**Q.** And the TGI [9]?
**A.** 39.8 µM

**Q.** And the TGI [11]?
**A.** > 100 µM

**Q.** What about the TGI [12] of the same compound?
**A.** 38.6 µM

**Q.** What about the TGI [13] of the same compound?
**A.** > 100 µM

**Q.** And the TGI [14]?
**A.** > 100 µM

**Q.** And the TGI [15]?
**A.** 5.87 µM

**Q.** What about the TGI [16] of the same compound?
**A.** > 100 µM

**Q.** What about the TGI [18] of the same compound?
**A.** 7.85 µM

**Q.** And the TGI [19]?
**A.** > 100 µM

**Q.** What about the TGI [20] of the same compound?
**A.** 7.71 µM

**Q.** What about the TGI [21] of the same compound?
**A.** 21.2 µM

**Q.** What about the TGI [22] of the same compound?
**A.** > 100 µM

**Q.** What about the TGI [23] of the same compound?
**A.** > 100 µM

**Q.** And the TGI [54]?
**A.** > 100 µM

**Q.** And the TGI [24]?
**A.** > 100 µM

**Q.** What about the TGI [25] of the same compound?
**A.** 5.69 µM

**Q.** And the TGI [26]?
**A.** > 100 µM

**Q.** And the TGI [27]?
**A.** 21.6 µM

**Q.** And the TGI [28]?
**A.** 24 µM

**Q.** What about the TGI [30] of the same compound?
**A.** 5.07 µM

**Q.** What about the TGI [31] of the same compound?
**A.** > 100 µM

**Q.** What about the TGI [32] of the same compound?
**A.** 9.01 µM

**Q.** What about the TGI [33] of the same compound?
**A.** > 100 µM

**Q.** What about the TGI [35] of the same compound?
**A.** 6.19 µM

**Q.** And the TGI [36]?
**A.** > 100 µM

**Q.** What about the TGI [37] of the same compound?
**A.** > 100 µM

**Q.** What about the TGI [55] of the same compound?
**A.** > 100 µM

**Q.** What about the TGI [38] of the same compound?
**A.** > 100 µM

**Q.** What about the TGI [39] of the same compound?
**A.** > 100 µM

**Q.** What about the TGI [40] of the same compound?
**A.** 8.15 µM

**Q.** And the TGI [56]?
**A.** 70.9 µM

**Q.** And the TGI [41]?
**A.** > 100 µM

**Q.** What about the TGI [43] of the same compound?
**A.** 21.8 µM

**Q.** And the TGI [44]?
**A.** 66.5 µM

**Q.** And the TGI [45]?
**A.** > 100 µM

**Q.** And the TGI [46]?
**A.** 85.9 µM

**Q.** What about the TGI [57] of the same compound?
**A.** 7.52 µM

**Q.** What about the TGI [48] of the same compound?
**A.** > 100 µM

**Q.** What about the TGI [49] of the same compound?
**A.** > 100 µM

**Q.** And the TGI [50]?
**A.** 5.22 µM

**Q.** And the TGI [51]?
**A.** 7.52 µM

**Q.** What about the TGI [52] of the same compound?
**A.** 7.67 µM

**Q.** And the TGI [53]?
**A.** 7.31 µM

**Q.** What about the TGI [58] of the same compound?
**A.** > 100 µM
